Molecular target: T1, cathepsin K (Homo sapiens, UniProt P43235)
T1 construct: gene CTSK; recombinant human CatK
T1 sequence (P43235 115-329): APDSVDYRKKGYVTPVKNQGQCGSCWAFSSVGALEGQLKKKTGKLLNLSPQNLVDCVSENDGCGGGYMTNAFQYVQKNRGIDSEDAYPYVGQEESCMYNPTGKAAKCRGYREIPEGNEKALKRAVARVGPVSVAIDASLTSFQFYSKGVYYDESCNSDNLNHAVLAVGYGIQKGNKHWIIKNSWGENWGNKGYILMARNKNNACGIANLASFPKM
Assay: gelatin zymography with recombinant human CatK
Type: biochemical

| SMILES | IC50 |
| --- | --- |
| CC(C)C[C@H](NC(=O)c1ccc(-c2ccc(-c3ccccc3)cc2)cc1)C(=O)N(C)N(C)C#N [CKI-8] | 0.051 ± 0.02 µM |
| CC(C)C[C@H](NC(=O)c1cccc(-c2ccc(-c3ccccc3)cc2)c1)C(=O)N(C)N(C)C#N [CKI-13] | 0.029 ± 0.011 µM |
